Assay results from patent US20140271499A1, “ARTICLE AND METHOD OF INITIATING BONE REGROWTH AND RESTORATION OF GUM RECESSION WITH LOCALIZED SUBGINGIVAL DELIVERY OF MEDICATIONS” (priority 2013, published 2014).
“Also recorded” adds a separate entry of the source.

How the values were obtained:
osteoclasts = experiment: Initial study of osteoclastic and osteoblastic activity on exposure to doxycycline; type: cell-based; conditions: exposed to doxycycline
Source text: Doxycycline bonds to internal and external calcium ions causing osteoclasts to detach from the bone, thus decreasing or stopping bone loss. […] The stoppage of bone loss and the maintenance of bone regeneration results in a net gain of new bone over time as long as the doxycycline is continually delivered to the bone/tissue interface with the currently disclosed method.

alveolar bone = experiment: Clinical cases: topical tray delivery to the periodontal pocket, alveolar bone and gingival tissue regrowth; type: in vivo, patient
Source text: (§1) One exemplary method will now be described. An initial examination determines the conditions of the patient's periodontal disease. Models of the patient along with their periodontal probing is forwarded to a laboratory registered to make the custom formed medical device (Perio Tray), which is capable of delivering about 1.7% hydrogen peroxide gel (Perio Gel) to the diseased tissue. […] The depth of the biofilm and the tissue damage that exist determines the frequency and duration of usage. Patients with severe tissue damage (6 mm or greater) use the Perio Tray about 4 times a day. Patients with moderate damage (3 mm to 6 mm) use the Perio Tray about 3 times a day and patients maintain their health using the trays once or twice a day for about 15 minutes.
After the photographs of FIGS. 12A, 14A, 16A, and 18A were taken in 2004, the patient began a treatment as described above that included regular direct/topical medication delivery to the a to the gingival sulcus and/or periodontal pocket 37 in 2004 delivering doxycycline subgingival and interproximal with the medicament delivery tray.
The fact teeth appear longer as we age is supported in the literature. This is explained as a greater action of osteoclasts as compared to the cellular activity of osteoblasts with a resultant decrease in alveolar bone 40B around the patient's teeth 10 with an accompanying loss of gingival tissue 24B appearing as receding gum tissue 24B and the exposure of a greater root surface making the teeth 10 appear longer.

oral biofilm = experiment: Penetration and eradication of oral biofilm by hydrogen peroxide gel
Source text: as §1

[1] = oxygen delivered directly to the tissues

Compound	formation of new osteoclasts from osteoclastic precursor cells (osteoclasts)	osteoblastic activity (osteoclasts)	osteoclastic activity (osteoclasts)	tooth mobility (alveolar bone; case studies, direct delivery to the periodontal pocket)	formation of new osteoclasts by precursor cells (alveolar bone; clinic tests)	bone loss and bone regeneration (alveolar bone; delivery to gingival sulcus or periodontal pocket)	attachment of osteoclasts to bone (alveolar bone; lengthy clinic tests)	cellular activity of osteoblasts (alveolar bone; lengthy clinic tests)	alveolar bone (radiographs) (alveolar bone; patient treated 1976 to 2012, hydrogen peroxide and topically applied doxycycline)	kill of biofilm bacteria (oral biofilm) [%]	eradication of biofilm bacteria (biofilm bacteria; in 14 to 17 days) [%]	time to bring to an end the facultative anaerobes (biofilm bacteria; [1]) [days]	time to kill the obligate anaerobes (biofilm bacteria; [1]) [days]
C[C@H]1c2cccc(O)c2C(=O)C2=C(O)[C@]3(O)C(=O)C(C(N)=O)=C(O)[C@@H](N(C)C)[C@@H]3[C@@H](O)[C@@H]21 [doxycycline]	completely abrogated	augmentation	decrease	decrease	completely stopped; also recorded: completely abrogates	stops bone loss and augments bone regeneration	inhibit	maintain or increase	regrown and increased	–	–	–	–
OO [hydrogen peroxide]	–	–	–	–	–	–	–	–	–	99.999	99.98	7	2
